{
  "source": "paper PMC3681751",
  "about": "“Identification of a Novel Antimicrobial Peptide from Human Hepatitis B Virus Core Protein Arginine-Rich Domain (ARD)” (PLoS Pathogens, 2013)",
  "key": {"Vero cells": {"system": "Vero cells", "test": "Cytotoxicity, MTT assay", "type": "cell-based, monkey", "conditions": "1 hour at 37°C; HBc147-183 at 100 µM, melittin at 3.125 µM; triplicates", "experimental": "Cytotoxicity was measured for HepG2, Huh7, HEK293, and Vero cells by MTT assay. Cells were seeded at 10^4 cells/well in a 96-well plate and serial dilutions of peptides were added into each well. PBS was used as a negative control and melittin was used as a positive control. After 1 hour of incubation, the medium were replaced by fresh medium containing 10% MTT solution (Promega), and the plate was incubated for 4 hours in 5% CO2 at 37°C. The absorbance at the wavelength of 595 nm was measured by an ELISA reader (Bio-Rad model 680)."}, "HepG2 cells": {"system": "HepG2 cells", "test": "Peptide uptake into mammalian cells", "type": "cell-based, human", "conditions": "data not shown", "experimental": "To set up CFSE cell proliferation assay, 293 cells (human kidney origin) and Vero cells (monkey kidney origin) were resuspended in PBS to a final concentration of 10^6 cells/ml, before incubation with 10 µM CFSE dye (CellTrace CFSE cell proliferation kit, Invitrogen) at 37°C for 10 min. To quench the staining, ice-old culture media were then added and incubated on ice for 5 min. Labeled cells were then pelleted and washed three times by fresh medium containing 10% FBS before seeding into six well plates at a density of 3.3×10^5cells/well. After 20 h, the medium was removed and incubated with fresh medium containing 5, 25 and 100 µM HBc 147-183 for one hour (FITC-labeled ARD peptide had been largely internalized in 10 minutes after the addition of ARD peptides to the medium of HepG2 cells). Forty-eight hours later, cells were harvested and analyzed by flow cytometry (FACSCanto, BD Bioscience)."}, "E. coli (ATCC 25922)": {"system": "E. coli (ATCC 25922)", "type": "cell-based, Escherichia coli", "conditions": "3 h at 37°C in phosphate buffer pH 7.2; triplicate", "procedure,_shortened": "(§1)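 Mid-log cultures grown in Mueller–Hinton broth were diluted to 10^6 CFU/ml in 10 mM sodium phosphate, 50 mM NaCl, pH 7.2, mixed with serially diluted HBc ARD peptides, and held 3 hours at 37°C without shaking. Survivors were plated on Mueller–Hinton agar overnight at 37°C to define MBC; triplicates.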"}, "[1]": {"system": "P. aeruginosa (ATCC 27853)", "type": "cell-based, Pseudomonas aeruginosa", "procedure,_shortened": "as §1"}, "[2]": {"system": "P. aeruginosa (ATCC 9027)", "type": "cell-based, Pseudomonas aeruginosa", "procedure,_shortened": "as §1"}, "pSUPER plasmid DNA": {"system": "pSUPER plasmid DNA", "test": "Gel retardation assay (DNA binding)", "conditions": "30 minutes at 37°C, 1% agarose gel; N/P = peptide amino nitrogen / DNA phosphate", "experimental": "The proportion between amino nitrogen (NH3 ^+) of HBc147-183 and phosphate (PO4 ^−) of DNA was defined as N/P ratio [35]. Briefly, HBc147-183 was incubated with pSUPER plasmid DNA at different N/P ratio (0, 0.2, 0.4, 0.6, 0.8, 1, 2, 3 and 4) for 30 minutes at 37°C. The mobility of pSUPER plasmid DNA was analyzed by electrophoresis on 1% agarose gel."}, "E. coli": {"system": "E. coli", "test": "SYTOX Green uptake (membrane permeabilization)", "type": "cell-based, Escherichia coli", "conditions": "4 µM peptide; 10^7 CFU, 1 µM SYTOX Green, 37°C", "experimental": "Briefly, bacteria (10^7 CFU) were prepared and mixed with 1 µM SYTOX Green (Invitrogen) for 15 minutes in the dark. […] Melittin (Sigma), the major toxin of bee venom, was used as a positive control to provide maximal permeabilization."}, "[3]": {"conditions": "ampicillin-resistant strain, 3 h at 37°C in phosphate buffer pH 7.2, triplicate"}},
  "note": "Where two headings read alike, the source gives them in different places. Residues, ends and D or L forms follow the SMILES beside them.",
  "data": [
    {"smiles": "CC(C)[C@H](NC(=O)[C@@H](NC(=O)[C@@H](N)[C@@H](C)O)C(C)C)C(=O)N[C@@H](CCCNC(=N)N)C(=O)N[C@@H](CCCNC(=N)N)C(=O)N[C@@H](CCCNC(=N)N)C(=O)NCC(=O)N[C@@H](CCCNC(=N)N)C(=O)N[C@@H](CO)C(=O)N1CCC[C@H]1C(=O)N[C@@H](CCCNC(=N)N)C(=O)N[C@@H](CCCNC(=N)N)C(=O)N[C@@H](CCCNC(=N)N)C(=O)N[C@H](C(=O)N1CCC[C@H]1C(=O)N[C@@H](CO)C(=O)N1CCC[C@H]1C(=O)N[C@@H](CCCNC(=N)N)C(=O)N[C@@H](CCCNC(=N)N)C(=O)N[C@@H](CCCNC(=N)N)C(=O)N[C@@H](CCCNC(=N)N)C(=O)N[C@@H](CO)C(=O)N[C@@H](CCC(N)=O)C(=O)N[C@@H](CO)C(=O)N1CCC[C@H]1C(=O)N[C@@H](CCCNC(=N)N)C(=O)N[C@@H](CCCNC(=N)N)C(=O)N[C@@H](CCCNC(=N)N)C(=O)N[C@@H](CCCNC(=N)N)C(=O)N[C@@H](CO)C(=O)N[C@@H](CCC(N)=O)C(=O)N[C@@H](CO)C(=O)N[C@@H](CCCNC(=N)N)C(=O)N[C@@H](CCC(=O)O)C(=O)N[C@@H](CO)C(=O)N[C@@H](CCC(N)=O)C(=O)N[C@@H](CS)C(=O)O)[C@@H](C)O", "note": "[HBc147-183] (H-TVVRRRGRSPRRRTPSPRRRRSQSPRRRRSQSRESQC-OH; N-terminus and C-terminus assumed)", "values": [
      {"measurement": "Cell viability / cytotoxicity (MTT)", "setting": "Vero cells", "value": "low level of cytotoxicity"},
      {"measurement": "Penetration through the cell membrane", "setting": "HepG2 cells", "value": "can penetrate through the cell membrane"},
      {"measurement": "Antimicrobial activity, MBC", "setting": "E. coli (ATCC 25922)", "value": 18.36, "unit": "µg/mL"},
      {"measurement": "Antimicrobial activity, MBC", "setting": "[1]; ATCC 27853, 3 h, pH 7.2", "value": "2 to 4", "unit": "µM"},
      {"measurement": "Antimicrobial activity, MBC", "setting": "[1]; [3]", "value": "9.18 to 18.36", "unit": "µg/mL"},
      {"measurement": "MBC against P. aeruginosa", "setting": "[2]; ATCC 9027, 3 h", "value": "lower than 4 µM"},
      {"measurement": "Antimicrobial activity, MBC", "setting": "[2]; ATCC 9027, 3 h, pH 7.2", "value": 2, "unit": "µM"},
      {"measurement": "Antimicrobial activity, MBC", "setting": "[2]; [3]", "value": 9.18, "unit": "µg/mL"},
      {"measurement": "N/P ratio at which plasmid DNA was completely retarded", "setting": "pSUPER plasmid DNA", "value": 1},
      {"measurement": "Membrane permeabilization (SYTOX Green uptake)", "setting": "E. coli", "value": "not able to induce membrane permeabilization"}
    ]}
  ]
}
